Consider 19 compounds from US12226412B2, “Heteroaryl-ketone fused azadecalin glucocorticoid receptor modulators” (Corcept Therapeutics, Inc., priority 2012, dated 2025).

In assay [1] the test system is induction of TAT by dexamethasone in HepG2 cells. The assay can be described thus: HepG2 tyrosine aminotransferase (TAT) assay. It counts as cell-based, human. The conditions noted are these: HepG2 cells, challenge of 100 nM dexamethasone; Ki from IC50 by Cheng and Prusoff equation.
For the next assay, the target named is T1, human recombinant GR (Homo sapiens, UniProt P04150).
T1 construct: purchased PanVera P2812
T1 sequence (P04150 1-777): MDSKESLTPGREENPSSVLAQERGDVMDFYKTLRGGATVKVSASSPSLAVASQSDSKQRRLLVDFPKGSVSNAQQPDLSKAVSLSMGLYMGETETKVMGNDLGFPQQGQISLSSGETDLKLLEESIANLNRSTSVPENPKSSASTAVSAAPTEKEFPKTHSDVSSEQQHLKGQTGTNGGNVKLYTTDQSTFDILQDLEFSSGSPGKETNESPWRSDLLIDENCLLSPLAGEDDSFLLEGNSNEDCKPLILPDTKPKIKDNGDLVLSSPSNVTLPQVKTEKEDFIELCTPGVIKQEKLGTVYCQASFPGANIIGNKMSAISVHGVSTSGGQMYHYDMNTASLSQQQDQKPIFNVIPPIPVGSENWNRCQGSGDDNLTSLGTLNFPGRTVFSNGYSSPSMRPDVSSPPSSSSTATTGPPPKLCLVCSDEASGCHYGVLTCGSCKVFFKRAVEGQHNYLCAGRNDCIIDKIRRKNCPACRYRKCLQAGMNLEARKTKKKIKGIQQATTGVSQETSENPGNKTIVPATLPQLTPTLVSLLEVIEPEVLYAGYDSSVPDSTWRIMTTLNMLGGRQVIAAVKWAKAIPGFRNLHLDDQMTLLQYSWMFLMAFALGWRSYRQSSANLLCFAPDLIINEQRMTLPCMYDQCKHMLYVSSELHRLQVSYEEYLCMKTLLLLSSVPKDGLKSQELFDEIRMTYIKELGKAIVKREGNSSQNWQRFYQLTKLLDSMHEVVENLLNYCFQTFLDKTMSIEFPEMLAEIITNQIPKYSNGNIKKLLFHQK
Put plainly: Human glucocorticoid receptor (GR) fluorescence polarisation (FP) binding assay. The conditions noted are these: human recombinant GR, fluorescence polarisation binding assay; read-out: GR binding. The method in brief: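 Competition fluorescence polarisation: 0.5 nM GS Red labelled glucocorticoid and 1 nM recombinant human GR with 8-point half-log compound series, 1% DMSO, 4 h room temperature, potassium phosphate pH 7.4 buffer with molybdate, EDTA, DTT. Affinity derived from the drop in polarisation, normalised to blank wells.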

Molecules are shown by their SMILES. Where only a bound is given, the exact number is not on record here.

On to `O=C(c1ccccn1)[C@]12Cc3cnn(-c4ccc(F)cc4)c3C=C1CCN(S(=O)(=O)c1ccc(Cl)c(C(F)(F)F)c1)C2` [Example 11BF, (R)-(6-((4-chloro-3-(trifluoromethyl)phenyl)sulfonyl)-1-(4-fluorophenyl)-4,4a,5,6,7,8-hexahydro-1H-pyrazolo[3,4-g]isoquinolin-4a-yl)(pyridin-2-yl)methanone], for which the Ki in assay [1] is 20 to 100 nM; on human recombinant GR, < 0.5 nM.

In the case of `Cc1ccc(S(=O)(=O)N2CCC3=Cc4c(cnn4-c4ccc(F)cc4)C[C@]3(C(=O)c3ccccn3)C2)cc1Cl` [Example 11BG, (R)-(6-((3-chloro-4-methylphenyl)sulfonyl)-1-(4-fluorophenyl)-4,4a,5,6,7,8-hexahydro-1H-pyrazolo[3,4-g]isoquinolin-4a-yl)(pyridin-2-yl)methanone], the Ki in assay [1] is < 20 nM; at human recombinant GR, < 0.5 nM.

Consider `O=C(c1ccnc(N2CCCC2)c1)[C@]12Cc3cnn(-c4ccc(F)cc4)c3C=C1CCN(S(=O)(=O)c1ccc(F)c(F)c1)C2` [Example 11BH, (R)-(6-((3,4-difluorophenyl)sulfonyl)-1-(4-fluorophenyl)-4,4a,5,6,7,8-hexahydro-1H-pyrazolo[3,4-g]isoquinolin-4a-yl)(2-(pyrrolidin-1-yl)pyridin-4-yl)methanone], for which the Ki in assay [1] is ≥ 100 nM; at human recombinant GR it was > 1 nM.

On to `Cn1ccc(S(=O)(=O)N2CCC3=Cc4c(cnn4-c4ccc(F)cc4)C[C@]3(C(=O)c3cc(C(F)(F)F)ccn3)C2)n1` [Example 11BI, (R)-(1-(4-fluorophenyl)-6-((1-methyl-1H-pyrazol-3-yl)sulfonyl)-4,4a,5,6,7,8-hexahydro-1H-pyrazolo[3,4-g]isoquinolin-4a-yl)(4-(trifluoromethyl)pyridin-2-yl)methanone], for which the Ki in assay [1] was < 20 nM; on human recombinant GR it was < 0.5 nM.

For `Cn1ccc(S(=O)(=O)N2CCC3=Cc4c(cnn4-c4ccc(F)cc4)C[C@]3(C(=O)c3ccccn3)C2)n1` [Example 11BJ, (R)-(1-(4-fluorophenyl)-6-((1-methyl-1H-pyrazol-3-yl)sulfonyl)-4,4a,5,6,7,8-hexahydro-1H-pyrazolo[3,4-g]isoquinolin-4a-yl)(pyridin-2-yl)methanone], the Ki was 20 to 100 nM in assay [1] and < 0.5 nM at human recombinant GR.

In the case of `Cc1[nH]ncc1S(=O)(=O)N1CCC2=Cc3c(cnn3-c3ccc(F)cc3)C[C@]2(C(=O)c2cc(C(F)(F)F)ccn2)C1` [Example 11BK, (R)-(1-(4-fluorophenyl)-6-((5-methyl-1H-pyrazol-4-yl)sulfonyl)-4,4a,5,6,7,8-hexahydro-1H-pyrazolo[3,4-g]isoquinolin-4a-yl)(4-(trifluoromethyl)pyridin-2-yl)methanone], the Ki was < 20 nM in assay [1] and < 0.5 nM at human recombinant GR.

For `N#Cc1cccc(S(=O)(=O)N2CCC3=Cc4c(cnn4-c4ccc(F)cc4)C[C@]3(C(=O)c3cc(C(F)(F)F)ccn3)C2)c1` [Example 11BL, (R)-3-((1-(4-fluorophenyl)-4a-(4-(trifluoromethyl)picolinoyl)-4a,5,7,8-tetrahydro-1H-pyrazolo[3,4-g]isoquinolin-6 (4H)-yl)sulfonyl)benzonitrile], the Ki in assay [1] is < 20 nM; on human recombinant GR, < 0.5 nM.

Turning to `Cn1nccc1S(=O)(=O)N1CCC2=Cc3c(cnn3-c3ccc(F)cc3)C[C@]2(C(=O)c2cc(C(F)(F)F)ccn2)C1` [Example 11BM, (R)-(1-(4-fluorophenyl)-6-((1-methyl-1H-pyrazol-5-yl)sulfonyl)-4,4a,5,6,7,8-hexahydro-1H-pyrazolo[3,4-g]isoquinolin-4a-yl)(4-(trifluoromethyl)pyridin-2-yl)methanone], the Ki was < 20 nM in assay [1] and < 0.5 nM on human recombinant GR.

Take `Cc1c(S(=O)(=O)N2CCC3=Cc4c(cnn4-c4ccc(F)cc4)C[C@]3(C(=O)c3cc(C(F)(F)F)ccn3)C2)cnn1C` [Example 11BN, (R)-(6-((1,5-dimethyl-1H-pyrazol-4-yl)sulfonyl)-1-(4-fluorophenyl)-4,4a,5,6,7,8-hexahydro-1H-pyrazolo[3,4-g]isoquinolin-4a-yl)(4-(trifluoromethyl)pyridin-2-yl)methanone]: the Ki in assay [1] is < 20 nM; at human recombinant GR, < 0.5 nM.

Regarding `O=C(c1cc(C(F)(F)F)ccn1)[C@]12Cc3cnn(-c4ccc(F)cc4)c3C=C1CCN(S(=O)(=O)c1cn[nH]c1)C2` [Example 11BO, (R)-(6-((1H-pyrazol-4-yl)sulfonyl)-1-(4-fluorophenyl)-4,4a,5,6,7,8-hexahydro-1H-pyrazolo[3,4-g]isoquinolin-4a-yl)(4-(trifluoromethyl)pyridin-2-yl)methanone], the values for the Ki (in assay [1]; at human recombinant GR) were < 20 nM and < 0.5 nM, respectively.

Regarding `Cn1cc(S(=O)(=O)N2CCC3=Cc4c(cnn4-c4ccc(F)cc4)C[C@]3(C(=O)c3ccccn3)C2)c(C(F)(F)F)n1` [Example 11BP, (R)-(1-(4-fluorophenyl)-6-((1-methyl-3-(trifluoromethyl)-1H-pyrazol-4-yl)sulfonyl)-4,4a,5,6,7,8-hexahydro-1H-pyrazolo[3,4-g]isoquinolin-4a-yl)(pyridin-2-yl)methanone], the Ki was ≥ 100 nM in assay [1] and < 0.5 nM on human recombinant GR.

`O=C(c1cc(C(F)(F)F)ccn1)[C@]12Cc3cnn(-c4ccc(F)cc4)c3C=C1CCN(S(=O)(=O)c1cc(F)c(F)c(F)c1)C2` [Example 11BQ, (R)-(1-(4-fluorophenyl)-6-((3,4,5-trifluorophenyl)sulfonyl)-4,4a,5,6,7,8-hexahydro-1H-pyrazolo[3,4-g]isoquinolin-4a-yl)(4-(trifluoromethyl)pyridin-2-yl)methanone]: the Ki in assay [1] was < 20 nM; on human recombinant GR it was > 1 nM.

`Cn1ccc(S(=O)(=O)N2CCC3=Cc4c(cnn4-c4ccc(Cl)cc4)C[C@]3(C(=O)c3cc(C(F)(F)F)ccn3)C2)n1` [Example 11BR, (R)-(1-(4-chlorophenyl)-6-((1-methyl-1H-pyrazol-3-yl)sulfonyl)-4,4a,5,6,7,8-hexahydro-1H-pyrazolo[3,4-g]isoquinolin-4a-yl)(4-(trifluoromethyl)pyridin-2-yl)methanone]: the Ki in assay [1] is < 20 nM; at human recombinant GR it was 0.5 to 1 nM.

For `O=C(c1ccccn1)[C@]12Cc3cnn(-c4ccc(F)cc4)c3C=C1CCN(S(=O)(=O)c1cn[nH]c1)C2` [Example 11BS, (R)-(6-((1H-pyrazol-4-yl)sulfonyl)-1-(4-fluorophenyl)-4,4a,5,6,7,8-hexahydro-1H-pyrazolo[3,4-g]isoquinolin-4a-yl)(pyridin-2-yl)methanone], the Ki in assay [1] lay within 20 to 100 nM; at human recombinant GR, 0.5 to 1 nM.

In the case of `Cn1ccc(S(=O)(=O)N2CCC3=Cc4c(cnn4-c4ccc(C(F)(F)F)cc4)C[C@]3(C(=O)c3ccccn3)C2)n1` [Example 11BT, (R)-(6-((1-methyl-1H-pyrazol-3-yl)sulfonyl)-1-(4-(trifluoromethyl)phenyl)-4,4a,5,6,7,8-hexahydro-1H-pyrazolo[3,4-g]isoquinolin-4a-yl)(pyridin-2-yl)methanone], the Ki in assay [1] was ≥ 100 nM; on human recombinant GR it was > 1 nM.

On to `O=C(c1cscn1)[C@]12Cc3cnn(-c4ccc(F)cc4)c3C=C1CCN(S(=O)(=O)c1ccc(F)c(F)c1)C2` [Example 11BU, (R)-(6-((3,4-difluorophenyl)sulfonyl)-1-(4-fluorophenyl)-4,4a,5,6,7,8-hexahydro-1H-pyrazolo[3,4-g]isoquinolin-4a-yl)(thiazol-4-yl)methanone], for which the Ki in assay [1] was 20 to 100 nM; on human recombinant GR, > 1 nM.

As for `Cc1nc(S(=O)(=O)N2CCC3=Cc4c(cnn4-c4ccc(F)cc4)C[C@]3(C(=O)c3cc(C(F)(F)F)ccn3)C2)cn1C` [Example 11BV, (R)-(6-((1,2-dimethyl-1H-imidazol-4-yl)sulfonyl)-1-(4-fluorophenyl)-4,4a,5,6,7,8-hexahydro-1H-pyrazolo[3,4-g]isoquinolin-4a-yl)(4-(trifluoromethyl)pyridin-2-yl)methanone], the Ki in assay [1] was < 20 nM; on human recombinant GR, < 0.5 nM.

Take `Cc1ncc(S(=O)(=O)N2CCC3=Cc4c(cnn4-c4ccc(F)cc4)C[C@]3(C(=O)c3cc(C(F)(F)F)ccn3)C2)n1C` [Example 11BW, (R)-(6-((1,2-dimethyl-1H-imidazol-5-yl)sulfonyl)-1-(4-fluorophenyl)-4,4a,5,6,7,8-hexahydro-1H-pyrazolo[3,4-g]isoquinolin-4a-yl)(4-(trifluoromethyl)pyridin-2-yl)methanone]: the Ki in assay [1] is 20 to 100 nM; on human recombinant GR, > 1 nM.

`Cn1ccnc1S(=O)(=O)N1CCC2=Cc3c(cnn3-c3ccc(F)cc3)C[C@]2(C(=O)c2cc(C(F)(F)F)ccn2)C1` [Example 11BX, (R)-(1-(4-fluorophenyl)-6-((1-methyl-1H-imidazol-2-yl)sulfonyl)-4,4a,5,6,7,8-hexahydro-1H-pyrazolo[3,4-g]isoquinolin-4a-yl)(4-(trifluoromethyl)pyridin-2-yl)methanone]: the results for the Ki (in assay [1]; on human recombinant GR) were < 20 nM and 0.5 to 1 nM, respectively.
